Results reported in PMC6219668 (Oncotarget, 2018).

Tested on: panel of nearly 500 cancer cell lines
Experiment: Cancer Cell Line Encyclopedia profiling, 3-day CellTiter-Glo
Assay type: cell-based
Parameters: Amax: unit not given here

With CN(C)C(=O)c1cc2cnc(Nc3ccc(N4CCNCC4)cn3)nc2n1C1CCCC1 [Ribociclib, 7-cyclopentyl-2-(5-piperazin-1-yl-pyridin-2-ylamino)-7H-pyrrolo[2,3-d]pyrimidine-6-carboxylic acid dimethylamide] the Amax (8mgba (central_nervous_system)) was 0.325, the Amax (769p (kidney)) was -56.5199 and the Amax (786o (kidney)) was 2.199. For the same compound, the Amax (8305c (thyroid)) was -43.2823, the Amax (8505c (thyroid)) was -10.3812 and the EC50 (CMK-86) was 0.195 µM. For the same compound, the IC50 (CMK-86) was 0.513 µM, the EC50 (COLO 699) was 0.00254 µM and the IC50 (COLO 699) was over 8 µM. The EC50 (COV318) was over 8 µM, the IC50 (COV318) was over 8 µM and the EC50 (COV504) was over 8 µM. The IC50 (COV504) was over 8 µM, the EC50 (Fu97) was 0.483 µM and the IC50 (Fu97) was over 8 µM. For the same compound, the EC50 (GLC82) was over 8 µM, the IC50 (GLC82) was over 8 µM and the EC50 (HCC15) was over 8 µM. The IC50 (HCC15) was over 8 µM, the EC50 (HEC-6) was over 8 µM and the IC50 (HEC-6) was over 8 µM. It also gave an EC50 (HEC-251) of over 8 µM, an IC50 (HEC-251) of over 8 µM and an EC50 (HEY A8) of 2.2 µM. It also gave an IC50 (HEY A8) of over 8 µM, an EC50 (Homo sapiens, 8-MG-BA) of over 8 µM and an IC50 (Homo sapiens, 8-MG-BA) of over 8 µM. For the same compound, the EC50 (Homo sapiens, 22Rv1) was 0.99 µM, the IC50 (Homo sapiens, 22Rv1) was 3.81 µM and the EC50 (Homo sapiens, 639-V) was over 8 µM. It also gave an IC50 (Homo sapiens, 639-V) of over 8 µM, an EC50 (Homo sapiens, 769-P) of 1.14 µM and an IC50 (Homo sapiens, 769-P) of 4.43 µM. It also gave an EC50 (Homo sapiens, 786-0) of over 8 µM, an IC50 (Homo sapiens, 786-0) of over 8 µM and an EC50 (Homo sapiens, 8305C) of over 8 µM. The IC50 (Homo sapiens, 8305C) was over 8 µM, the EC50 (Homo sapiens, 8505C) was 1.87 µM and the IC50 (Homo sapiens, 8505C) was over 8 µM. For the same compound, the EC50 (Homo sapiens, A 172) was over 8 µM, the IC50 (Homo sapiens, A 172) was over 8 µM and the EC50 (Homo sapiens, A204) was 0.0389 µM. The IC50 (Homo sapiens, A204) was over 8 µM, the EC50 (Homo sapiens, A253) was over 8 µM and the IC50 (Homo sapiens, A253) was over 8 µM. The EC50 (Homo sapiens, A549) was 0.801 µM, the IC50 (Homo sapiens, A549) was over 8 µM and the EC50 (Homo sapiens, A673) was 0.568 µM. The IC50 (Homo sapiens, A673) was over 8 µM, the EC50 (Homo sapiens, A2058) was over 8 µM and the IC50 (Homo sapiens, A2058) was over 8 µM. For the same compound, the EC50 (Homo sapiens, A2780) was 0.201 µM, the IC50 (Homo sapiens, A2780) was 4.04 µM and the EC50 (Homo sapiens, A-375) was over 8 µM. It also gave an IC50 (Homo sapiens, A-375) of 8 µM, an EC50 (Homo sapiens, ACHN) of over 8 µM and an IC50 (Homo sapiens, ACHN) of over 8 µM. The EC50 (Homo sapiens, AMO1) was over 8 µM, the IC50 (Homo sapiens, AMO1) was over 8 µM and the EC50 (Homo sapiens, AN3-CA) was over 8 µM. For the same compound, the IC50 (Homo sapiens, AN3-CA) was over 8 µM, the EC50 (Homo sapiens, ASPC1) was over 8 µM and the IC50 (Homo sapiens, ASPC1) was over 8 µM. For the same compound, the EC50 (Homo sapiens, AU565) was over 8 µM, the IC50 (Homo sapiens, AU565) was over 8 µM and the EC50 (Homo sapiens, AZ-521) was over 8 µM. It also gave an IC50 (Homo sapiens, AZ-521) of over 8 µM, an EC50 (Homo sapiens, BCPAP) of over 8 µM and an IC50 (Homo sapiens, BCPAP) of over 8 µM. The EC50 (Homo sapiens, BFTC-909) was 3.38 µM, the IC50 (Homo sapiens, BFTC-909) was over 8 µM and the EC50 (Homo sapiens, BGC-823) was over 8 µM. The IC50 (Homo sapiens, BGC-823) was over 8 µM, the EC50 (Homo sapiens, BL-41) was over 8 µM and the IC50 (Homo sapiens, BL-41) was over 8 µM. It also gave an EC50 (Homo sapiens, BT-474) of over 8 µM, an IC50 (Homo sapiens, BT-474) of over 8 µM and an EC50 (Homo sapiens, BT-549) of over 8 µM. The IC50 (Homo sapiens, BT-549) was over 8 µM, the EC50 (Homo sapiens, BXPC-3) was over 8 µM and the IC50 (Homo sapiens, BXPC-3) was over 8 µM. It also gave an EC50 (Homo sapiens, C2BBe1) of over 8 µM, an IC50 (Homo sapiens, C2BBe1) of over 8 µM and an EC50 (Homo sapiens, CAKI-2) of over 8 µM. It also gave an IC50 (Homo sapiens, CAKI-2) of over 8 µM, an EC50 (Homo sapiens, CAL-12T) of 4.08 µM and an IC50 (Homo sapiens, CAL-12T) of 4.08 µM. The EC50 (Homo sapiens, CAL-27) was 3.83 µM, the IC50 (Homo sapiens, CAL-27) was over 8 µM and the EC50 (Homo sapiens, CAL-85-1) was over 8 µM. The IC50 (Homo sapiens, CAL-85-1) was over 8 µM, the EC50 (Homo sapiens, CAMA-1) was over 8 µM and the IC50 (Homo sapiens, CAMA-1) was over 8 µM. For the same compound, the EC50 (Homo sapiens, CHL-1) was over 8 µM, the IC50 (Homo sapiens, CHL-1) was over 8 µM and the EC50 (Homo sapiens, CHP-212) was 0.126 µM. The IC50 (Homo sapiens, CHP-212) was 1.84 µM, the EC50 (Homo sapiens, COLO 201) was over 8 µM and the IC50 (Homo sapiens, COLO 201) was over 8 µM. It also gave an EC50 (Homo sapiens, COLO 205) of 1.24 µM, an IC50 (Homo sapiens, COLO 205) of 3.46 µM and an EC50 (Homo sapiens, COLO 320) of over 8 µM. For the same compound, the IC50 (Homo sapiens, COLO 320) was over 8 µM, the EC50 (Homo sapiens, COLO-678) was 0.475 µM and the IC50 (Homo sapiens, COLO-678) was over 8 µM. The EC50 (Homo sapiens, COLO-679) was 1.03 µM, the IC50 (Homo sapiens, COLO-679) was over 8 µM and the EC50 (Homo sapiens, COLO-741) was 2.13 µM. For the same compound, the IC50 (Homo sapiens, COLO-741) was over 8 µM, the EC50 (Homo sapiens, COR-L23) was over 8 µM and the IC50 (Homo sapiens, COR-L23) was over 8 µM. The EC50 (Homo sapiens, COR-L105) was over 8 µM, the IC50 (Homo sapiens, COR-L105) was over 8 µM and the EC50 (Homo sapiens, Calu-1) was over 8 µM. For the same compound, the IC50 (Homo sapiens, Calu-1) was over 8 µM, the EC50 (Homo sapiens, Calu-3) was over 8 µM and the IC50 (Homo sapiens, Calu-3) was over 8 µM. For the same compound, the EC50 (Homo sapiens, Calu-6) was 1.48 µM, the IC50 (Homo sapiens, Calu-6) was over 8 µM and the EC50 (Homo sapiens, Capan-2) was over 8 µM. The IC50 (Homo sapiens, Capan-2) was over 8 µM, the EC50 (Homo sapiens, DBTRG-05MG) was 0.347 µM and the IC50 (Homo sapiens, DBTRG-05MG) was over 8 µM. For the same compound, the EC50 (Homo sapiens, DMS-114) was 0.112 µM, the IC50 (Homo sapiens, DMS-114) was over 8 µM and the EC50 (Homo sapiens, DOHH-2) was 0.122 µM. It also gave an IC50 (Homo sapiens, DOHH-2) of over 8 µM, an EC50 (Homo sapiens, DOV13) of over 8 µM and an IC50 (Homo sapiens, DOV13) of over 8 µM. The EC50 (Homo sapiens, DU-145) was over 8 µM, the IC50 (Homo sapiens, DU-145) was over 8 µM and the EC50 (Homo sapiens, DV-90) was 0.00743 µM. It also gave an IC50 (Homo sapiens, DV-90) of over 8 µM, an EC50 (Homo sapiens, Daoy) of over 8 µM and an IC50 (Homo sapiens, Daoy) of over 8 µM. The EC50 (Homo sapiens, Detroit 562) was over 8 µM, the IC50 (Homo sapiens, Detroit 562) was over 8 µM and the EC50 (Homo sapiens, EBC-1) was 0.44 µM. For the same compound, the IC50 (Homo sapiens, EBC-1) was over 8 µM, the EC50 (Homo sapiens, EFE-184) was over 8 µM and the IC50 (Homo sapiens, EFE-184) was over 8 µM. For the same compound, the EC50 (Homo sapiens, EFM-19) was 0.0482 µM, the IC50 (Homo sapiens, EFM-19) was over 8 µM and the EC50 (Homo sapiens, EFO-21) was over 8 µM. It also gave an IC50 (Homo sapiens, EFO-21) of over 8 µM, an EC50 (Homo sapiens, EFO-27) of over 8 µM and an IC50 (Homo sapiens, EFO-27) of over 8 µM. It also gave an EC50 (Homo sapiens, ESS-1) of 0.867 µM, an IC50 (Homo sapiens, ESS-1) of over 8 µM and an EC50 (Homo sapiens, FaDu) of over 8 µM. It also gave an IC50 (Homo sapiens, FaDu) of over 8 µM, an EC50 (Homo sapiens, G-361) of over 8 µM and an IC50 (Homo sapiens, G-361) of over 8 µM. It also gave an EC50 (Homo sapiens, G-401) of 0.00888 µM, an IC50 (Homo sapiens, G-401) of over 8 µM and an EC50 (Homo sapiens, G-402) of 0.467 µM. It also gave an IC50 (Homo sapiens, G-402) of 2.05 µM, an EC50 (Homo sapiens, GAMG) of over 8 µM and an IC50 (Homo sapiens, GAMG) of over 8 µM. The EC50 (Homo sapiens, GCIY) was over 8 µM, the IC50 (Homo sapiens, GCIY) was over 8 µM and the EC50 (Homo sapiens, GMS-10) was over 8 µM. It also gave an IC50 (Homo sapiens, GMS-10) of over 8 µM, an EC50 (Homo sapiens, Granta-519) of over 8 µM and an IC50 (Homo sapiens, Granta-519) of over 8 µM. The EC50 (Homo sapiens, HCC44) was 1.59 µM, the IC50 (Homo sapiens, HCC44) was over 8 µM and the EC50 (Homo sapiens, HCC70) was over 8 µM. It also gave an IC50 (Homo sapiens, HCC70) of over 8 µM, an EC50 (Homo sapiens, HCC78) of over 8 µM and an IC50 (Homo sapiens, HCC78) of over 8 µM. For the same compound, the EC50 (Homo sapiens, HCC827) was over 8 µM, the IC50 (Homo sapiens, HCC827) was over 8 µM and the EC50 (Homo sapiens, HCC1187) was over 8 µM. It also gave an IC50 (Homo sapiens, HCC1187) of over 8 µM, an EC50 (Homo sapiens, HCC1395) of over 8 µM and an IC50 (Homo sapiens, HCC1395) of over 8 µM. The EC50 (Homo sapiens, HCC1569) was over 8 µM, the IC50 (Homo sapiens, HCC1569) was over 8 µM and the EC50 (Homo sapiens, HCC1806) was over 8 µM. For the same compound, the IC50 (Homo sapiens, HCC1806) was over 8 µM, the EC50 (Homo sapiens, HCC1954) was over 8 µM and the IC50 (Homo sapiens, HCC1954) was over 8 µM. It also gave an EC50 (Homo sapiens, HCC2935) of over 8 µM, an IC50 (Homo sapiens, HCC2935) of over 8 µM and an EC50 (Homo sapiens, HCC4006) of over 8 µM. For the same compound, the IC50 (Homo sapiens, HCC4006) was over 8 µM, the EC50 (Homo sapiens, HCT-15) was 4.53 µM and the IC50 (Homo sapiens, HCT-15) was over 8 µM. The EC50 (Homo sapiens, HCT-116) was over 8 µM, the IC50 (Homo sapiens, HCT-116) was over 8 µM and the EC50 (Homo sapiens, HDQ-P1) was 0.506 µM. The IC50 (Homo sapiens, HDQ-P1) was over 8 µM, the EC50 (Homo sapiens, HEC-1-A) was over 8 µM and the IC50 (Homo sapiens, HEC-1-A) was over 8 µM. For the same compound, the EC50 (Homo sapiens, HEC-1B) was 0.0275 µM, the IC50 (Homo sapiens, HEC-1B) was over 8 µM and the EC50 (Homo sapiens, HEL 92.1.7) was over 8 µM. For the same compound, the IC50 (Homo sapiens, HEL 92.1.7) was over 8 µM, the EC50 (Homo sapiens, HGC-27) was 0.188 µM and the IC50 (Homo sapiens, HGC-27) was 0.534 µM. The EC50 (Homo sapiens, HMCB) was over 8 µM, the IC50 (Homo sapiens, HMCB) was over 8 µM and the EC50 (Homo sapiens, HPAC) was 2.67 µM. The IC50 (Homo sapiens, HPAC) was 2.67 µM.
